Holding throughout (assay): relative viability (nuclei count vs DMSO), 5 days (fraction); higher = more cells survive
Compound in the assay “AZD1208 + Dasatinib”: N[C@@H]1CCCN(c2c(/C=C3\SC(=O)NC3=O)cccc2-c2ccccc2)C1 [AZD1208] + Cc1nc(Nc2ncc(C(=O)Nc3c(C)cccc3Cl)s2)cc(N2CCN(CCO)CC2)n1 [Dasatinib] (partner 0.075 µM)
A digest of the protocol:
(§1)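 Five library-drug doses in √10 steps were combined with a fixed anchor-drug dose, or a single drug was given alone, by pin tool to lung cancer cell lines in 1536-well plates the day after seeding. Nuclei were stained and counted after 5 days. Relative viability is the nuclei count in treated wells over that in vehicle wells, taken as the median of duplicate plates.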

Compound in the assay “AZD1208 + Vorinostat”: N[C@@H]1CCCN(c2c(/C=C3\SC(=O)NC3=O)cccc2-c2ccccc2)C1 [AZD1208] + O=C(CCCCCCC(=O)Nc1ccccc1)NO [Vorinostat] (partner 1 µM)
Summed up: as §1

Compound in the assay “AZD1208 + Decitabine”: N[C@@H]1CCCN(c2c(/C=C3\SC(=O)NC3=O)cccc2-c2ccccc2)C1 [AZD1208] + Nc1ncn([C@H]2C[C@H](O)[C@@H](CO)O2)c(=O)n1 [Decitabine] (partner 2 µM)
A digest of the protocol: as §1

Compound in the assay “XMD14-99 + Vorinostat”: CN1CCN(CC1)C2=CC(=C(C=C2)NC3=NC(=C(S3)C(=O)C4=C(C=CC=C4Cl)Cl)N)OC [XMD14-99] + O=C(CCCCCCC(=O)Nc1ccccc1)NO [Vorinostat] (partner 1 µM)
A digest of the protocol: as §1

Regarding EKVX, the relative viability turned out to be 0.637 in the assay with AZD1208 + Dasatinib (first compound 0.08 µM); 0.245 with AZD1208 + Dasatinib (first compound 0.253 µM); 0.51 with AZD1208 + Dasatinib (first compound 0.8 µM); 0.498 with AZD1208 + Dasatinib (first compound 2.53 µM); 0.48 with AZD1208 + Dasatinib (first compound 8 µM); 0.766 with AZD1208 + Vorinostat (first compound 0.08 µM). Moreover, the relative viability with AZD1208 + Vorinostat (first compound 0.253 µM) was 0.583; with AZD1208 + Vorinostat (first compound 0.8 µM), 0.744; with AZD1208 + Vorinostat (first compound 2.53 µM) it was 0.735; with AZD1208 + Vorinostat (first compound 8 µM), 0.763; in the assay with AZD1208 + Decitabine (first compound 0.08 µM), 0.286; with AZD1208 + Decitabine (first compound 0.253 µM), 0.356. The relative viability in the assay with AZD1208 + Decitabine (first compound 0.8 µM) is 0.327; in the assay with AZD1208 + Decitabine (first compound 2.53 µM), 0.351; with AZD1208 + Decitabine (first compound 8 µM), 0.344; with XMD14-99 + Vorinostat (first compound 0.08 µM), 0.701; with XMD14-99 + Vorinostat (first compound 0.8 µM), 0.714; with XMD14-99 + Vorinostat (first compound 2.53 µM) it was 0.655. Moreover, the relative viability with XMD14-99 + Vorinostat (first compound 8 µM) amounted to 0.493.

Turning to LXF-289, the relative viability turned out to be 0.227 in the assay with AZD1208 + Dasatinib (first compound 0.08 µM); 0.175 with AZD1208 + Dasatinib (first compound 0.253 µM); 0.195 in the assay with AZD1208 + Dasatinib (first compound 0.8 µM); 0.181 in the assay with AZD1208 + Dasatinib (first compound 2.53 µM); 0.15 with AZD1208 + Dasatinib (first compound 8 µM); 0.791 with AZD1208 + Vorinostat (first compound 0.08 µM). In addition, the relative viability was 0.849 in the assay with AZD1208 + Vorinostat (first compound 0.253 µM); 0.701 in the assay with AZD1208 + Vorinostat (first compound 0.8 µM); 0.715 in the assay with AZD1208 + Vorinostat (first compound 2.53 µM); 0.832 with AZD1208 + Vorinostat (first compound 8 µM); 0.36 in the assay with AZD1208 + Decitabine (first compound 0.08 µM); 0.423 in the assay with AZD1208 + Decitabine (first compound 0.253 µM). Moreover, the relative viability worked out at 0.378 in the assay with AZD1208 + Decitabine (first compound 0.8 µM); 0.36 in the assay with AZD1208 + Decitabine (first compound 2.53 µM); 0.289 with AZD1208 + Decitabine (first compound 8 µM); 0.754 in the assay with XMD14-99 + Vorinostat (first compound 0.08 µM); 0.696 with XMD14-99 + Vorinostat (first compound 0.8 µM); 0.726 in the assay with XMD14-99 + Vorinostat (first compound 2.53 µM). The relative viability in the assay with XMD14-99 + Vorinostat (first compound 8 µM) was found to be 0.738.

Take ABC-1: the relative viability with AZD1208 + Dasatinib (first compound 0.08 µM) amounted to 0.667; with AZD1208 + Dasatinib (first compound 0.253 µM), 0.509; in the assay with AZD1208 + Dasatinib (first compound 0.8 µM) it was 0.522; with AZD1208 + Dasatinib (first compound 2.53 µM), 0.69; with AZD1208 + Dasatinib (first compound 8 µM), 0.563; in the assay with AZD1208 + Vorinostat (first compound 0.08 µM) it was 1.75. Moreover, the relative viability came to 1.08 in the assay with AZD1208 + Vorinostat (first compound 0.253 µM); 0.922 in the assay with AZD1208 + Vorinostat (first compound 0.8 µM); 0.997 with AZD1208 + Vorinostat (first compound 2.53 µM); 1.02 with AZD1208 + Vorinostat (first compound 8 µM); 0.926 with AZD1208 + Decitabine (first compound 0.08 µM); 1.07 with AZD1208 + Decitabine (first compound 0.253 µM). The relative viability with AZD1208 + Decitabine (first compound 0.8 µM) worked out at 0.992; in the assay with AZD1208 + Decitabine (first compound 2.53 µM), 0.989; with AZD1208 + Decitabine (first compound 8 µM), 0.821; in the assay with XMD14-99 + Vorinostat (first compound 0.08 µM), 1.13; with XMD14-99 + Vorinostat (first compound 0.8 µM), 0.996; with XMD14-99 + Vorinostat (first compound 2.53 µM) it was 1.01. For the same cell line, in the assay with XMD14-99 + Vorinostat (first compound 8 µM), the relative viability came to 0.646.

As to NCI-H661, the relative viability with AZD1208 + Dasatinib (first compound 0.08 µM) was 0.95; with AZD1208 + Dasatinib (first compound 0.253 µM), 0.98; with AZD1208 + Dasatinib (first compound 0.8 µM), 0.864; with AZD1208 + Dasatinib (first compound 2.53 µM), 0.777; with AZD1208 + Dasatinib (first compound 8 µM), 0.902; in the assay with AZD1208 + Vorinostat (first compound 0.08 µM) it was 0.796. Besides, the relative viability worked out at 0.775 in the assay with AZD1208 + Vorinostat (first compound 0.253 µM); 0.827 with AZD1208 + Vorinostat (first compound 0.8 µM); 0.82 in the assay with AZD1208 + Vorinostat (first compound 2.53 µM); 0.917 with AZD1208 + Vorinostat (first compound 8 µM); 0.559 with AZD1208 + Decitabine (first compound 0.08 µM); 0.56 with AZD1208 + Decitabine (first compound 0.253 µM). The relative viability was 0.547 in the assay with AZD1208 + Decitabine (first compound 0.8 µM); 0.502 with AZD1208 + Decitabine (first compound 2.53 µM); 0.51 with AZD1208 + Decitabine (first compound 8 µM); 0.807 in the assay with XMD14-99 + Vorinostat (first compound 0.08 µM); 0.768 with XMD14-99 + Vorinostat (first compound 0.8 µM); 0.627 with XMD14-99 + Vorinostat (first compound 2.53 µM). Moreover, the relative viability with XMD14-99 + Vorinostat (first compound 8 µM) stood at 0.522.

Source of the values: the supplement of paper PMC10307832.
